# Measurements: ChEMBL document CHEMBL2169864, “Binding Model for the Interaction of Anticancer Arylsulfonamides with the p300 Transcription Cofactor” (ACS Med Chem Lett, 2012)
# Calls of active or inactive are those of the source. No cut-off for these calls is given here.
# How the values were obtained:
# [1] = biological target: Hypoxia-inducible factor 1-alpha (Homo sapiens) (UniProt Q16665); test: Binding affinity to HIF1alpha in human LN229 cell nuclear extracts by Western blot analysis
# [2] = biological target: T1, Histone acetyltransferase p300 (Homo sapiens, UniProt Q09472); test: Binding affinity to GST-tagged recombinant P300 CH1 domain expressed in Escherichia coli BL21 by Coomassie staining-based gel electrophoresis; settings: tested as the 14C-labelled form
# [3] = biological target: T1, Histone acetyltransferase p300; test: Binding affinity to recombinant P300 CH1 domain assessed as dissociation constant by surface plasmon resonance analysis
# [4] = biological target: T1, Histone acetyltransferase p300; test: Binding affinity to P300 in human LN229 cell nuclear extracts by Western blot analysis
# T1 sequence (Q09472 whole entry, the tested form may be a part): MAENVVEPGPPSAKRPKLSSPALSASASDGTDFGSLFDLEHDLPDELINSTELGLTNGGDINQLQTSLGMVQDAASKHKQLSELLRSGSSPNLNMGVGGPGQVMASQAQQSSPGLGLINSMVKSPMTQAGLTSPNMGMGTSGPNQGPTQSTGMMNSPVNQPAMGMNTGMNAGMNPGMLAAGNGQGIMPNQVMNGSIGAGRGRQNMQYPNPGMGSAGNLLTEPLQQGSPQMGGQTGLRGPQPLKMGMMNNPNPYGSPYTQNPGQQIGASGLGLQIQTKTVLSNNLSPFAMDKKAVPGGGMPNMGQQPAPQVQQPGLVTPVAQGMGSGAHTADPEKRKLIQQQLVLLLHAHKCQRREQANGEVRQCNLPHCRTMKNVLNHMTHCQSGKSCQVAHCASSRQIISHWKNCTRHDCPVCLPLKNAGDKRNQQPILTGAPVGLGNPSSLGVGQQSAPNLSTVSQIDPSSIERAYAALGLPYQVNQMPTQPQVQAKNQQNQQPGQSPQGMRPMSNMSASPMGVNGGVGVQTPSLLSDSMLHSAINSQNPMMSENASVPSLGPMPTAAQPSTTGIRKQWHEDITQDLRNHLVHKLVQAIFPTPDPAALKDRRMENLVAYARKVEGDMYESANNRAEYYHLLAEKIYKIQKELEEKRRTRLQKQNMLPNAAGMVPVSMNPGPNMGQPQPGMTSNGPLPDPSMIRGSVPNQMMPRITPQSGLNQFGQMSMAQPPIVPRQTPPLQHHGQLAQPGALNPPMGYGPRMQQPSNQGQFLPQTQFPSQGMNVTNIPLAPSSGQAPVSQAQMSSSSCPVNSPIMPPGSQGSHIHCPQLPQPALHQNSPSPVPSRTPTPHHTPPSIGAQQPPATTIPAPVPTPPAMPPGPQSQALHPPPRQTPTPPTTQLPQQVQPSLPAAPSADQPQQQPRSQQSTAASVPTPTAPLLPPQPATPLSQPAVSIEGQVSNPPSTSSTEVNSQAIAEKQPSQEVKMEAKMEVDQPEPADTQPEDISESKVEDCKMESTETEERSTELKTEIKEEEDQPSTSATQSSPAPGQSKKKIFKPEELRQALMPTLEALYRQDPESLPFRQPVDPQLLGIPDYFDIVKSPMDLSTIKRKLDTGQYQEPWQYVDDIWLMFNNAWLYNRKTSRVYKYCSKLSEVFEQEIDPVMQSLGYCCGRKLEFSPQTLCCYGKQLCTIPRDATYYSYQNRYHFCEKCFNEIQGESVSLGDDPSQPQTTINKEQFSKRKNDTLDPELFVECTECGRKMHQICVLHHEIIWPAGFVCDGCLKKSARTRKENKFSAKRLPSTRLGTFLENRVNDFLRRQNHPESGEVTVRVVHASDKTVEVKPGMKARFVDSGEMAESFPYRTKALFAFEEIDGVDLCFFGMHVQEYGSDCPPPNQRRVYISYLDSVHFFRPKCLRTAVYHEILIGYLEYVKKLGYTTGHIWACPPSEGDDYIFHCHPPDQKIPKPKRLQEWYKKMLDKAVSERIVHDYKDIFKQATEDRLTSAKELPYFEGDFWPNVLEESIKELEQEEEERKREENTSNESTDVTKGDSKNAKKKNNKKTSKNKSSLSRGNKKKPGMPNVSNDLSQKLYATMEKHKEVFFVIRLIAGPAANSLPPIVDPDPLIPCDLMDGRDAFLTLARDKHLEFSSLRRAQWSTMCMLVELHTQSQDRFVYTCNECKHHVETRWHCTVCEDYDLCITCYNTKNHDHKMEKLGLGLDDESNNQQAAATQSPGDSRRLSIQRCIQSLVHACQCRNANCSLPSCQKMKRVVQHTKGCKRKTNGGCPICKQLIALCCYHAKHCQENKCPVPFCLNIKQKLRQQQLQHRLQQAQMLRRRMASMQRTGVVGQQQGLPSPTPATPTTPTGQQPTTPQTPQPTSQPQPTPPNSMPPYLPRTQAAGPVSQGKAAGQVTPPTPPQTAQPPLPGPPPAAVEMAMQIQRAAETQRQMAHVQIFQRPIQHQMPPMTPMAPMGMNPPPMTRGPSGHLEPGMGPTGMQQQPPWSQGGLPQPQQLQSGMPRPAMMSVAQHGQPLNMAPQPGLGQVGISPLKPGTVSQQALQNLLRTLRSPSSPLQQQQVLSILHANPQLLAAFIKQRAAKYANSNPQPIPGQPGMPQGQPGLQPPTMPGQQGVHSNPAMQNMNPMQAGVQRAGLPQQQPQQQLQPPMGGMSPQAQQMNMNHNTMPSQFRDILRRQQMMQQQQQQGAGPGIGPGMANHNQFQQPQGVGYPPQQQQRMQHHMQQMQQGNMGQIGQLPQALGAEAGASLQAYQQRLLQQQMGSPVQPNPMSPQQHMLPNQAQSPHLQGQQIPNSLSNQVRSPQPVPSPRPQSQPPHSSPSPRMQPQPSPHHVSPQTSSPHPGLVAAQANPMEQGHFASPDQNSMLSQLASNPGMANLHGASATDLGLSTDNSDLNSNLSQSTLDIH
# Hypoxia-inducible factor 1-alpha (Homo sapiens), sequence (Q16665 whole entry, looked up, the tested form may be a part): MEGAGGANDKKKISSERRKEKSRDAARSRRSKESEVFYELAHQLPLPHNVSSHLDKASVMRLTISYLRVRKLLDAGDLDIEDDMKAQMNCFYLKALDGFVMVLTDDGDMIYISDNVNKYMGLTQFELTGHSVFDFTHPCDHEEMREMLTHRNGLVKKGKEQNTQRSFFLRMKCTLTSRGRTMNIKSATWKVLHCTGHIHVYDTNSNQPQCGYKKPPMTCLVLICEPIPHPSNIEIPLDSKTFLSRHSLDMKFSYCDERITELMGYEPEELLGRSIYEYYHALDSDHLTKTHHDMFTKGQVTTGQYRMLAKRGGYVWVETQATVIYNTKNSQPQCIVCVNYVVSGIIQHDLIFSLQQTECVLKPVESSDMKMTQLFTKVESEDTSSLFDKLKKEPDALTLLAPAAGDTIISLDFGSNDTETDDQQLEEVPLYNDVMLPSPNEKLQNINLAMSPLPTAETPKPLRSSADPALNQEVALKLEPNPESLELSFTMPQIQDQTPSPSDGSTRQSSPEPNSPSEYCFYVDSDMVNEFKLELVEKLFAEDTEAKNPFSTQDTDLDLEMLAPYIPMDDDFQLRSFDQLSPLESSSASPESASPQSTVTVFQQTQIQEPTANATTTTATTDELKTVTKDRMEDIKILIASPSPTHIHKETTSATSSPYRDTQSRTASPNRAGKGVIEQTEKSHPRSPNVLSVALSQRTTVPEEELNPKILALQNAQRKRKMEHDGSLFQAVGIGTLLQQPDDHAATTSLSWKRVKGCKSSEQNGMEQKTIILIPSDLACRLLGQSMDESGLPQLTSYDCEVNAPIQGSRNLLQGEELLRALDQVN
smiles,measurement,setting,value
COc1ccc(S(=O)(=O)N(Cc2ccc3c(c2)C=CC(C)(C)O3)c2ccccc2)cc1OC,Activity,[1],inactive
same,Activity,[2],Active
same,Kd,[3],345 nM
same,Activity,[4],Active
